Laboratory results from patent US11806317B2, “Composition capable of promoting testosterone secretion and use thereof” (TCI CO., LTD, priority 2017, dated 2023).

System: mouse Leydig cells (TM3 cells, ATCC CRL1714)
Test: Test of effects of plant extracts or combinations of components on testosterone secretion (testosterone ELISA of culture supernatant)
Type: cell-based
Settings: 24 hours, control 100%
Procedure: 500 μl of the cell culture medium was added to each well of a 24-well plate to have 2×10^4 TM3 cells per well, and cultured at 37° C. for 24 hours. After the cells were adhered, the original medium was removed, and 500 μl of the aforementioned fresh cell culture medium was added.
The samples were then divided into two groups, of which group A was the control group, and no plant extracts or other test components were added. Group B was the test group. […] After that, the condition of the amount of testosterone secretion was analyzed. The doses shown in the tables are the doses of the single extract, or the combination of the extracts.
First, 50 μl of the supernatant of the culture medium after the reaction of each of the above groups was taken out, and the testosterone ELISA test kit (USCN, Cat# CEA458Ge) was used to detect the testosterone concentration. The detected values were then analyzed by Microsoft Excel software using Student's t-test to determine whether there is statistical significance between the two samples (* indicates p-value <0.05; ** indicates p-value <0.01; *** indicates p-value <0.001).

[1] = dose 0.125 mg/ml (single extract/component or 1:1 combination)
[2] = dose 0.25 mg/ml (single extract/component or 1:1 combination)

| SMILES | Testosterone secretion relative to control (dose 0.03125 mg/ml (single extract/component or 1:1 combination)) [%] | Testosterone secretion relative to control [1] [%] | Testosterone secretion relative to control [2] [%] |
| --- | --- | --- | --- |
| CC1=C(/C=C/C(C)=C/C=C/C(C)=C/C=C/C=C(C)/C=C/C=C(C)/C=C/C2=C(C)CCCC2(C)C)C(C)(C)CCC1 [beta carotene] | 66.21 | 103.79 | 111.42 |
| CC(C)=CCC/C(C)=C/C=C/C(C)=C/C=C/C(C)=C/C=C/C=C(C)/C=C/C=C(C)/C=C/C=C(\C)CCC=C(C)C [lycopene] |  | 99.94 | 104.02 |
